# Assay results published in US20080113974A1, “Heterocyclic Oxime Compounds, A Process For Their Preparation And Pharmaceutical Compositions Containing Them” (LES LABORATOIRES SERVIER, priority 2005, published 2008).
# System: ob/ob mouse
# Experiment: Antidiabetic and hypolipaemic effect in the ob/ob mouse
# Type: in vivo
# Conditions: dose of 3 mg/kg; for variation in body weight: four days, body weight measured daily
# Method: The 10-week-old female ob/ob mouse (Harlan) is used for the in vivo tests. The animals are kept in a light-darkness cycle of 12 hours at 25° C. The mouse has a basal hyperglycaemia of 2 g/l. The animals are randomly selected with regard to their glycaemia to form groups of six. […] […] The control groups receive the solvents under the same conditions as the treated groups.
# The activity of the products is evaluated by measuring glycaemia, triglycerides and insulinaemia 24 hours after the final administration and by measuring body weight daily.
# [1] = twice per day for four days, 24 hours after the final administration
Structure (SMILES),variation in body weight,reduction in glycaemia [1] [%],reduction in insulinaemia [1] [%],reduction in triglycerides [1] [%]
CCOC(Cc1ccc(OCCN2C(=O)COc3ccc(C(=NO)c4ccccc4)cc32)cc1)C(=O)O (centres unmarked) [Example 11],insignificant variation,25,22,45
"CN(CCOc1ccc(CC2SC(=O)NC2=O)cc1)c1ccccn1 (centres unmarked) [rosiglitazone, reference compound]",significant increase,,,
